{"source": "patent US20100160454A1", "about": "“ANTIMICROBIAL AGENTS, COMPOSITIONS AND PRODUCTS CONTAINING THE SAME, AND METHODS OF USING THE COMPOSITIONS AND PRODUCTS” (Eastman Chemical Company, priority 2008, published 2010)", "key": {"[1]": {"system": "Candida albicans ATCC 10231", "test": "Determination of MIC and MLC in test broth", "assay_type": "cell-based", "conditions": "Candida albicans ATCC 10231, 30-day subculture", "protocol": "(§1) Two antimicrobial endpoints were investigated. The minimum inhibitory concentration (MIC), which identifies the lowest concentration of test material at which growth for a specific organism is inhibited (by a minimum of 3 log units), reflects “biostatic activity”. The minimum lethal concentration (MLC), or lowest concentration that kills the organism and at which subculturing with growth is not possible, reflects “biocidal activity”. 1,4-CHDM and propylene glycol (PG) were added to previously sterilized screw-cap glass tubes and diluted with Peptone Water Broth with 2 wt % Dextrose (=test broth) to the following dilutions (weight percent): 0.05, 0.075, 0.125, 0.25, 0.5, 0.75, 1.25, 2.5, 5.0, 7.5, 10.0, 15.0, 20.0.\n(§2) Each of 12 sets of the above test tubes were challenged with specific organisms (see Table 5) to produce a contamination of between 1.0×10^5 cfu/g and 1.0×10^6 cfu/g in the test broth to which no 1,4-CHDM or propylene glycol had been added. These challenge organisms were prepared in TSB broth, allowed to grow for 72 hours at 35° C.+/−2° C., centrifuged at 2500 rpm for 5 minutes, and the supernatant broth was removed. The microbial pellet was then re-diluted with sterile buffered water to a turbidity that matched previous 1.0×10^6 cfu/g concentrations of that organism's specific growth curve. This challenge was repeated on day 3. Plate counts of both challenges enumerated to within 1.0×10^5+/−5,000 cfu/g after 7 days incubation at 35° C.+/−2° C.\n(§3) These tubes were mixed well by inversion (minimum of 25 inversions) and incubated at 35° C.+/−2° C. The tubes were inverted again (minimum of 25 times) on the third and seventh day of incubation and prior to each subculture.\n(§4) These subcultures were incubated under optimal conditions and nutrition for no less than 5 days. Subcultures of 0.1 ml, undiluted and diluted 1:10, 1:100, . . . , and 1:10,000, were transferred to plates using the spread plate method onto Plate Count Agar; and SAB Dextrose Agar in addition for the Candida and Aspergillus species; and incubated as follows: 35° C.+/−2° C. for the Plate Count Agar and 22° C.+/−2° C. for the SAB Dextrose plates of Candida albicans and Aspergillus niger. Negative results were not reported before 7 days incubation and counts were performed after no less than 5 days incubation. Counts of Candida and Aspergillus species were made on the agar representing the highest count observed, usually the SAB Dextrose."}, "[2]": {"system": "Proteus vulgaris", "test": "Determination of MIC and MLC in test broth", "assay_type": "cell-based", "conditions": "30-day subculture", "protocol": "as §1, §2, §3, §4"}, "[3]": {"system": "Burkholderia cepacia ATCC 25416", "test": "Determination of MIC and MLC in test broth", "assay_type": "cell-based", "conditions": "Burkholderia cepacia ATCC 25416, 30-day subculture", "protocol": "as §1, §2, §3, §4"}, "[4]": {"system": "Streptococcus pyogenes", "test": "Determination of MIC and MLC in test broth", "assay_type": "cell-based", "conditions": "30-day subculture", "protocol": "as §1, §2, §3, §4"}, "[5]": {"system": "Aspergillus niger ATCC 16404", "test": "Determination of MIC and MLC in test broth", "assay_type": "cell-based", "conditions": "Aspergillus niger ATCC 16404, 30-day subculture", "protocol": "as §1, §2, §3, §4"}, "[6]": {"test": "Water extraction of 1,4-CHDM from biodiesel, gas chromatography", "assay_type": "physicochemical", "conditions": "soy biodiesel with theoretical 0.024 wt % CHDM, 0.90% water added, 3 days, centrifuged", "protocol": "A solution of 59.5 wt % 1,4-CHDM in ethoxydiglycol (Eastman DE solvent) was prepared by weighing into a vial 1.36 g ethoxydiglycol and 2.00 g 1,4-CHDM. The mixture was heated to 55° C. to melt the 1,4-CHDM, mixed on a vortex mixer, then placed on a rocker mixer overnight at room temperature to allow all of the 1,4-CHDM to dissolve.\n1,4-CHDM was added to soy biodiesel as follows: 60.00 g soy biodiesel was weighed into 4-oz jar. 0.0246 g of the above CHDM/DE solution was weighed into the biodiesel. The sample was mixed using a magnetic stirrer. There was no visible separation after mixing and the biodiesel remained clear. The theoretical amount of CHDM in the biodiesel is 0.024 wt %. 5.00 g was removed from the sample for analysis.\nTo make a biodiesel mixture containing 0.90% water, 0.50 g deionized water was added to the remaining 55.0 g 1,4-CHDM/DE/biodiesel mixture and mixed with a magnetic stirrer. The mixture became cloudy when stirred and also contained visible water droplets. The mixture was allowed to sit undisturbed for 3 days, during which time a white aqueous layer appeared on the bottom and the biodiesel (top layer) still remained cloudy. The mixture was centrifuged to separate as much water as possible from the biodiesel. […] The 1,4-CHDM/DE/biodiesel mixtures before and after water extraction and the bottom aqueous layer were analyzed by gas chromatography for 1,4-CHDM. […]"}}, "data": [{"smiles": "OCC1CCC(CO)CC1", "note": "(stereo not drawn) [1,4-CHDM, 1,4-cyclohexanedimethanol]", "values": [{"measurement": "MIC 30 DAYS", "setting": "[1]", "result": 2.5, "unit": "wt %"}, {"measurement": "MLC 30 DAYS", "setting": "[1]", "result": 20, "unit": "wt %"}, {"measurement": "MIC 30 DAYS", "setting": "[2]", "result": 2.5, "unit": "wt %"}, {"measurement": "MLC 30 DAYS", "setting": "[2]", "result": ">20", "unit": "wt %"}, {"measurement": "MIC 30 DAYS", "setting": "[3]", "result": 1.25, "unit": "wt %"}, {"measurement": "MLC 30 DAYS", "setting": "[3]", "result": 20, "unit": "wt %"}, {"measurement": "MIC 30 DAYS", "setting": "[4]", "result": 2.5, "unit": "wt %"}, {"measurement": "MLC 30 DAYS", "setting": "[4]", "result": 20, "unit": "wt %"}, {"measurement": "MIC 30 DAYS", "setting": "[5]", "result": 2.5, "unit": "wt %"}, {"measurement": "MLC 30 DAYS", "setting": "[5]", "result": ">20", "unit": "wt %"}, {"measurement": "1,4-CHDM content of the aqueous bottom layer", "setting": "[6]", "result": 0.38, "unit": "wt %"}]}, {"smiles": "CC(O)CO", "note": "(stereo not drawn) [PG, propylene glycol]", "values": [{"measurement": "MIC 30 DAYS", "setting": "[1]", "result": 20, "unit": "wt %"}, {"measurement": "MLC 30 DAYS", "setting": "[1]", "result": ">20", "unit": "wt %"}, {"measurement": "MIC 30 DAYS", "setting": "[2]", "result": 20, "unit": "wt %"}, {"measurement": "MLC 30 DAYS", "setting": "[2]", "result": ">20", "unit": "wt %"}, {"measurement": "MIC 30 DAYS", "setting": "[3]", "result": 10, "unit": "wt %"}, {"measurement": "MLC 30 DAYS", "setting": "[3]", "result": ">20", "unit": "wt %"}, {"measurement": "MIC 30 DAYS", "setting": "[4]", "result": 20, "unit": "wt %"}, {"measurement": "MLC 30 DAYS", "setting": "[4]", "result": ">20", "unit": "wt %"}, {"measurement": "MIC 30 DAYS", "setting": "[5]", "result": 20, "unit": "wt %"}, {"measurement": "MLC 30 DAYS", "setting": "[5]", "result": ">20", "unit": "wt %"}]}]}
